Laboratory results reported in patent US8609681B2, “Spirocyclic nitriles as protease inhibitors” (Sanofi, priority 2006, dated 2013).

Tests used:
Type in all cases: biochemical
Conditions in all cases: Ki from IC50 by Cheng-Prusoff equation
[1] = biological target: catalytic domain of human Cathepsin B (Homo sapiens (Human), UniProt P07858); experiment: Enzymatic activity of the catalytic domain of human Cathepsin B (fluorogenic substrate Z-Arg-Arg-AMC)
Procedure: (§1) The enzyme is activated as follows:
25 μg of enzyme are diluted with acetate buffer to a concentration of 12.5 μg/ml. 1 part by volume of enzyme is admixed with 20 parts by volume of cysteine solution and diluted with the acetate/Hepes buffer to a concentration of 0.11 μg/ml and incubated at 37° C. for 5 minutes.
(§2) To measure the enzyme activity, 10 μl of enzyme solution are incubated with 10 μl of a 3% (v/v) aqueous dimethyl sulfoxide solution (reaction 1) for 10 minutes. To measure the enzyme inhibitor activity, 10 μl of enzyme solution are incubated with 10 μl of a 3% (v/v) aqueous dimethyl sulfoxide solution which contains the enzyme inhibitor (reaction 2).
(§3) Both in reaction 1 and in reaction 2, after addition of 10 μl of a 3% (v/v) aqueous dimethyl sulfoxide solution which contains 0.3 mmol/l of the substrate, the enzyme reaction is monitored by fluorescence spectroscopy (360 nm (excitation)/465 nm (emission)).
(§4) The enzyme activity is shown as fluorescence increase/minute.
The inhibitor action is calculated as the percentage inhibition by the following formula: inhibition=100−[(fluorescence increase/minute in reaction 2)/(fluorescence increase/minute in reaction 1)×100].
(§5) The IC50, which is the inhibitor concentration required for a 50% inhibition in the enzyme activity, is determined graphically by plotting the percentage inhibitions at different inhibitor concentrations.
The acetate buffer contains 0.1 mol/l of sodium acetate, 0.1 mol/l of sodium chloride and 0.001% Pluronic (Sigma, Deisenhofen, Germany) pH 4.5.
(§6) The cysteine solution contains 0.3 mol/l of cysteine in water. The acetate/Hepes buffer contains 0.15 mol/l of sodium acetate, 0.15 mol/l of Hepes, 0.3 mol/l of sodium chloride and 0.001% Pluronic (Sigma, Deisenhofen, Germany) pH 6.5.
The enzyme solution contains 0.11 μg/ml of the enzyme domain.
The substrate solution contains 0.3 mmol/l of the fluorogenic substrate […] (Bachem, Heidelberg, Germany).
(§7) Corresponding Ki values are obtained by applying the Cheng-Prusoff equation: Ki=Ki,app/(1+[S]/KM); where Ki,app=IC50
(§8) (Ki,app is the concentration of the competing substance which leads to 50% inhibition of the enzymatic activity at a substrate concentration [S])

[2] = biological target: catalytic domain of human Cathepsin K (Homo sapiens (Human), UniProt P43235); experiment: Enzymatic activity of the catalytic domain of human Cathepsin K (fluorogenic substrate Boc-Ala-Gly-Pro-Arg-AMC)
Procedure: as §1
1 part by volume of enzyme is admixed with 4 parts by volume of cysteine solution and diluted with the acetate/Hepes buffer to a concentration of 0.22 μg/ml.
as §2, §3, §4
(§9) The inhibitor action is calculated as the percentage inhibition by the following formula: % inhibition=100−[(fluorescence increase/minute in reaction 2)/(fluorescence increase/minute in reaction 1)×100].
as §5, §6
The enzyme solution contains 0.22 μg/ml of the enzyme domain.
The substrate solution contains 0.3 mmol/l of the fluorogenic substrate Boc-Ala-Gly-Pro-Arg-AMC (Bachem, Heidelberg, Germany).
as §7, §8

[3] = biological target: catalytic domain of human Cathepsin S (Homo sapiens (Human), UniProt P25774); experiment: Enzymatic activity of the catalytic domain of human Cathepsin S (fluorogenic substrate Z-Val-Val-Arg-AMC)
Procedure: as §1
5 parts by volume of enzyme are incubated with 20 parts by volume of acetate buffer and 50 parts by volume of cysteine solution at 37° C. for 5 minutes. After the activation of the enzyme, it is diluted with the Tris/HCl buffer to a concentration of 0.65 μg/ml. To measure the enzyme activity, 10 μl of enzyme solution are incubated with 10 μl of a 3% (v/v) aqueous dimethyl sulfoxide solution (reaction 1) for 10 minutes. To measure the enzyme inhibitor activity, 10 μl of enzyme solution are incubated with 10 μl of a 3% (v/v) aqueous dimethyl sulfoxide solution which contains the enzyme inhibitor (reaction 2). Both in reaction 1 and in reaction 2, after addition of 10 μl of a 1.5% (v/v) aqueous dimethyl sulfoxide solution which contains 0.15 mmol/l of the substrate, the enzyme reaction is monitored by fluorescence spectroscopy (360 nm (excitation)/465 nm (emission)).
as §4, §9, §5
The acetate buffer contains 0.05 mol/l of sodium acetate, 0.1 mol/l of sodium chloride and 0.001% Pluronic (Sigma, Deisenhofen, Germany) pH 5.5.
The cysteine solution contains 0.3 mol/l of cysteine in water. The Tris/HCl buffer contains 0.1 mol/l of Tris/HCl, 0.04 mol/l of EDTA and 0.001% Pluronic pH=7.5. The enzyme solution contains 0.65 μg/ml of the enzyme domain.
The substrate solution contains 0.15 mmol/l of the fluorogenic substrate Z-Val-Val-Arg-AMC (Bachem, Heidelberg, Germany).
as §7, §8

catalytic domain of human Cathepsin S, sequence (P25774 115-331): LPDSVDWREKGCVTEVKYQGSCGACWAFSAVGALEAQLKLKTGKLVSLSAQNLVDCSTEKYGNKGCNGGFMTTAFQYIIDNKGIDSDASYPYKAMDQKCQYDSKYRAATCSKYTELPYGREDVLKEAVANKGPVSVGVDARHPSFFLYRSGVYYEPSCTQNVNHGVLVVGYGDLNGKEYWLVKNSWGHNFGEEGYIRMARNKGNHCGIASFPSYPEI
catalytic domain of human Cathepsin K, sequence (P43235 115-329): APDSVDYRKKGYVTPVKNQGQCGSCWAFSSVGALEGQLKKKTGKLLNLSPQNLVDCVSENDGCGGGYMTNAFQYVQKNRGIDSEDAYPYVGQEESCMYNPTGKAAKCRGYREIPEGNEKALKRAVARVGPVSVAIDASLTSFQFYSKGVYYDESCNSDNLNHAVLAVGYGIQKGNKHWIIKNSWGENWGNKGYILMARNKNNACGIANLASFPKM

Row | SMILES | Ki [1] [nM] | Ki [2] [nM] | Ki [3] [nM]
1 | CC(F)(F)C[C@H](NC(=O)N1CCC2(CCCCC2)CC1)C(=O)NC1(C#N)CC1 [Example 9, N—[(S)-1-(1-cyanocyclopropylcarbamoyl)-3,3-difluorobutyl]-3-azaspiro[5.5]undecane-3-carboxamide] | 46 | 1.8 | 3.2
2 | CC(C)C[C@H](NC(=O)C1CCC2(CC1)OCCO2)C(=O)NC1(C#N)CC1 [Example 35, N—[(S)-1-(1-cyanocyclopropylcarbamoyl)-3-methylbutyl]-1,4-dioxaspiro[4.5]decane-8-carboxamide] | > 7100 | 31 | 150
3 | CC(F)(F)C[C@H](NC(=O)N1CCC2(CCCC2)CC1)C(=O)NC1(C#N)CC1 [Example 36] | 44 | 3 | 2
4 | CC(F)(F)C[C@H](NC(=O)N1CCC2(CC1)OCCO2)C(=O)NC1(C#N)CC1 [Example 37] | 560 | 21 | 13
5 | CC(F)(F)C[C@H](NC(=O)N1CCC2(CC1)C(=O)NCN2c1ccccc1)C(=O)NC1(C#N)CC1 [Example 42] | 4500 | 32 | 11
6 | CC(F)(F)C[C@H](NC(=O)N1CCC2(CC1)NCC(C)(C)CO2)C(=O)NC1(C#N)CC1 [Example 45] | 1200 | 21 | 24
7 | CC(F)(F)C[C@H](NC(=O)N1CCC2(CC1)CCN(Cc1ccccc1)C2=O)C(=O)NC1(C#N)CC1 [Example 49] | 2200 | 52 | 16
8 | N#CC1(NC(=O)C2(NC(=O)N3CCC4(CCCC4)CC3)CCCCC2)CC1 [Example 53] | 1500 | 4.5 | 53
9 | CC(F)(F)C[C@H](NC(=O)N1CCC2(CC1)CCN(C1CC1)CC2)C(=O)NC1(C#N)CC1 [Example 56] | 210 | 7.5 | 7.2
10 | CC(F)(F)C[C@H](NC(=O)N1CCC2(CC1)CC2)C(=O)NC1(C#N)CC1 [Example 63, N—[(S)-1-(1-cyanocyclopropylcarbamoyl)-3,3-difluorobutyl]-6-azaspiro[2.5]octane-6-carboxamide] | 260 | 22 | 5
11 | N#CC1(NC(=O)[C@H](CC(F)(F)Cc2ccccc2)NC(=O)N2CCC3(CC2)CC3)CC1 [Example 70, N—[(S)-1-(1-cyanocyclopropylcarbamoyl)-3,3-difluoro-4-phenylbutyl]-6-azaspiro[2.5]octane-6-carboxamide] | 110 | 910 | 0.3
12 | CC(F)(F)C[C@H](NS(=O)(=O)N1CCC2(CCCC2)CC1)C(=O)NC1(C#N)CC1 [Example 74, N-(1-Cyanocyclopropyl)-(S)-2-(8-azaspiro[4.5]decane-8-sulfonylamino)-4,4-difluoropentamide] | > 7100 | 150 | 16
13 | CC(F)(F)C[C@H](NC(=O)N1CCC2(CC1)CCC(C)(C)O2)C(=O)NC1(C#N)CC1 [Example 76] | 930 | 47 | 22
14 | CC(F)(F)C[C@H](NC(=O)N1CCC2(CCCCC2)C1)C(=O)NC1(C#N)CC1 [Example 77] | 220 | 20 | 7
15 | CC(F)(F)C[C@H](NC(=O)N1CCC2(CC1)OCc1ccccc12)C(=O)NC1(C#N)CC1 [Example 78] | 530 | 38 | 19
16 | CC(F)(F)C[C@H](NC(=O)N1CCC2(CCCc3ccccc32)C1)C(=O)NC1(C#N)CC1 (stereo partly drawn) [Example 79] | 620 | 16 | 9
17 | CC(F)(F)C[C@H](NC(=O)N1CCOC12CCCCC2)C(=O)NC1(C#N)CC1 [Example 80] | 3900 | 36 | 9
18 | CC(F)(F)C[C@H](NC(=O)N1CC2(CCN(C3CC3)CC2)C1)C(=O)NC1(C#N)CC1 [Example 83] | 2300 | 28 | 8
19 | CC(F)(F)C[C@H](NC(=O)N1CCC2(CC1)CC(=O)N(CC1CC1)C2)C(=O)NC1(C#N)CC1 [Example 88] | 310 | 15 | 9
20 | CCCC(F)(F)C[C@H](NC(=O)N1CCC2(CC1)CCN(c1ccc(OC)cc1)C2)C(=O)NC1(C#N)CC1 [Example 91] | 140 | 43 | 2
21 | CCCC(F)(F)C[C@H](NC(=O)N1CCC2(CC1)CCN(C1CC1)CC2)C(=O)NC1(C#N)CC1 [Example 94] | 84 | 24 | 2
22 | N#CC1(NC(=O)[C@H](CC(F)(F)Cc2ccccc2)NC(=O)N2CCC3(CC2)CCN(C2CC2)CC3)CC1 [Example 97] | 100 | 400 | 1
23 | CCCC(F)(F)C[C@H](NC(=O)N1CCC2(CC1)CC2)C(=O)NC1(C#N)CC1 [Example 102] | 62 | 33 | 0.5
24 | CN1CCC(C#N)(NC(=O)[C@H](CC(C)(F)F)NC(=O)N2CCC3(CC2)CC3)CC1 [Example 103] | 99 | 84 | 27
